From patent US9803021B2 (The Regents of the University of California, priority 2012, dated 2017)
“Also recorded” adds a separate entry of the source.

Tests used:
[1] = system: ANBL-6; experiment: MTS assay (cell viability / metabolic activity); assay type: cell-based, human; settings: ANBL-6, 3 days or 7 days
Experimental: (§1) Percent cell viability was determined using MTS solution (Promega, Madison, Wis.) by measuring absorbance at 490 nm using a Synergy HT Multi-Detection Microplate Reader (BioTek Instruments, Inc., Winooski, Vt.) with untreated cells being 100%. GraphPad Prism (GraphPad Software Inc., La Jolla, Calif.) was used to analyze data by non-linear regression with the log (inhibitor) vs. the response with a variable slope with the IC50 calculated. Data are expressed as a percentage of maximum metabolic activity. The experiments were performed in triplicate.
as §1, with “Metabolic activity” for “Percent cell viability”, “(Promega)” for “(Promega, Madison, Wis.)”, “Instruments Inc.)” for “Instruments, Inc., Winooski, Vt.)”, “Inc.)” for “Inc., La Jolla, Calif.)”, “versus” for “vs.”, “slope.” for “slope with the IC50 calculated.”

[2] = system: MM1-144; experiment: MTS assay (cell viability / metabolic activity); assay type: cell-based, human; settings: MM144 (MM1-144), 3 days
Experimental: as §1
as §1, with “Metabolic activity” for “Percent cell viability”, “(Promega)” for “(Promega, Madison, Wis.)”, “Instruments Inc.)” for “Instruments, Inc., Winooski, Vt.)”, “Inc.)” for “Inc., La Jolla, Calif.)”, “versus” for “vs.”, “slope.” for “slope with the IC50 calculated.”

[3] = system: NCI-H929; experiment: MTS assay (cell viability / metabolic activity); assay type: cell-based, human; settings: 3 days
Experimental: as §1
as §1, with “Metabolic activity” for “Percent cell viability”, “(Promega)” for “(Promega, Madison, Wis.)”, “Instruments Inc.)” for “Instruments, Inc., Winooski, Vt.)”, “Inc.)” for “Inc., La Jolla, Calif.)”, “versus” for “vs.”, “slope.” for “slope with the IC50 calculated.”

[4] = system: OCI-My5; experiment: MTS assay (cell viability / metabolic activity); assay type: cell-based, human; settings: OCI-My5, 3 days
Experimental: as §1
as §1, with “Metabolic activity” for “Percent cell viability”, “(Promega)” for “(Promega, Madison, Wis.)”, “Instruments Inc.)” for “Instruments, Inc., Winooski, Vt.)”, “Inc.)” for “Inc., La Jolla, Calif.)”, “versus” for “vs.”, “slope.” for “slope with the IC50 calculated.”

[5] = system: U266; experiment: MTS assay (cell viability / metabolic activity); assay type: cell-based, human; settings: U266, 3 days
Experimental: as §1
as §1, with “Metabolic activity” for “Percent cell viability”, “(Promega)” for “(Promega, Madison, Wis.)”, “Instruments Inc.)” for “Instruments, Inc., Winooski, Vt.)”, “Inc.)” for “Inc., La Jolla, Calif.)”, “versus” for “vs.”, “slope.” for “slope with the IC50 calculated.”

[6] = system: ANBL-6; experiment: Senescence induced β-gal activity at pH 6 (C12FDG, flow cytometry); assay type: cell-based, human; settings: ANBL-6, 1 nM, 3 days (data not shown)
Experimental: (§2) Senescence induced β-galactosidase (β-gal) activity was detected as described previously (Debacq-Chainiaux et al. (2009) Nature Protocols, 4: 1798-1806). […] To induce lysosomal alkalinization, cells were incubated in 100 nM bafilomycin A1 (Sigma) for 1 h. Then cells were incubated for 30 min with the β-gal substrate dodecanoylaminofluorescein di-β-D-galactopyranoside (C12FDG; Invitrogen), which becomes fluorescent after cleavage by β-gal. After washing twice with cold PBS, cells were resuspended in cold PBS containing 1 mM phenylethyl thiogalactoside (PETG), a β-gal inhibitor, and analyzed by flow cytometry for C12-fluorescein.
(§3) Intracellular β-galactosidase (β-gal) activity was measured as an indicator for replicative senescence. […] After treatment, cells were incubated with 100 nM bafilomycin A1 (Sigma) for 1 hour to induce lysosomal alkalinization. Then cells were incubated for 30 minutes with the 33 μM of β-gal substrate dodecanoylaminofluorescein di-β-D-galactopyranoside (C12FDG; Invitrogen), which becomes fluorescent after cleavage to C12-fluorescein. After washing twice with cold PBS, cells were resuspended in cold PBS containing 1 mM phenylethyl thiogalactoside (PETG), a β-gal inhibitor, and analyzed by flow cytometry for C12-fluorescein.

[7] = system: OCI-My5; experiment: as above; assay type: cell-based, human; settings: OCI-My5, 1 nM, 3 days (also 4, 6, 7 days)
Experimental: as §2, §3

[8] = system: U266; experiment: as above; assay type: cell-based, human; settings: U266, 1 nM, 3 days
Experimental: as §2, §3

[9] = system: OCI-My 5 cells; experiment: Cell proliferation assay (3[H]-thymidine incorporation); assay type: cell-based, human; settings: OCI-My 5, 0.3 pM-25 nM, 3 days
Experimental: The proliferative status of the cells was determined by measuring ^3[H]-thymidine incorporation.

[10] = system: primary myeloma cells from patients; experiment: Treatment of primary myeloma cells from patients (trypan blue / MTT); assay type: cell-based, human; settings: 25 nM, 72 h
Experimental: Trypan blue and MTT assays were used to determine the number of viable cells. The percentage of viable recovered cells was calculated based upon the number of viable cells recovered from DMSO-treated control cells, which was arbitrarily designated as 100%.
Percent viable cell recovery was determined by trypan blue staining, with untreated control cells designated as 100%.

[11] = system: OCI-My 5 tumors; experiment: OCI-My5 xenograft model in SCID mice; assay type: in vivo, mouse; settings: OCI-My5 s.c., 100 μg i.v. on days 14, 16, 18
Excerpt: Eight mice were included in each group.
Each group consisted of eight mice.

[12] = system: Daudi cells; experiment: Binding of anti-CD138 IgG to Daudi cells; parameters: species or system human; settings: data not shown
[13] = system: U266 tumors; experiment: U266 xenograft model in NSG mice; settings: U266 s.c., 100 μg on days 14, 16, 18
Experimental: For U266 tumors, NOD scid IL-2 receptor gamma chain knock out (NSG) mice were injected subcutaneously with 1×10^7 U226 cells and treated on days 14, 16 and 18 with 100 μg of the indicated proteins. […] Survival was monitored as well as the size of the tumors.
For U266 tumors, experiments were carried out as described above except that NOD-scid IL2rγ^null (NSG) mice were used.

Substance: anti-CD138: Unfused human anti-CD138 IgG1 with VH and VL of antibody B-B4 [reference compound]
- cell viability / growth inhibition (MTS assay), result in words [1]: no effect
- cell viability / growth inhibition (MTS assay), result in words [2]: no effect
- cell viability / growth inhibition (MTS assay), result in words [3]: no effect
- cell viability / growth inhibition (MTS assay), result in words [4]: no effect
- cell viability / growth inhibition (MTS assay), result in words [5]: no effect
- β-gal activity at pH 6 (senescence), result in words [6]: no increases
- β-gal activity at pH 6 (senescence), result in words [7]: little or no increase in β-gal activity
- β-gal activity at pH 6 (senescence), result in words [8]: no increase under any conditions
- proliferation (3[H]-thymidine incorporation), result in words [9]: did not decrease the ability of the cells to proliferate
- viability of primary myeloma cells, result in words [10]: little effect
- survival / protection, result in words [11]: increased survival slightly; also recorded: did not differ significantly from PBS treated mice
- binding to Daudi cells [12]: did not bind to Daudi cells
- survival / protection against tumor growth, result in words [13]: significant protection
